US9612240B2, “Biomimetic chemical sensors using nanoelectronic readout of olfactory receptors” (The Trustees Of The University Of Pennsylvania, priority 2010, dated 2017)
“And” between values parts separate entries of the source, which are not always exact repeats. Equal entries are not always repeated. “Also recorded” adds a separate entry of the source. Where two headings read alike, the source gives them in different places.

Tests used:
mOR203-1 [1] = settings: mOR203-1 expressed in HEK cells; cited from earlier work
mOR256-17 [2] = target: T1, mOR256-17 (Mus musculus, UniProt P23275); settings: cited from earlier work
T1 sequence (P23275 1-312): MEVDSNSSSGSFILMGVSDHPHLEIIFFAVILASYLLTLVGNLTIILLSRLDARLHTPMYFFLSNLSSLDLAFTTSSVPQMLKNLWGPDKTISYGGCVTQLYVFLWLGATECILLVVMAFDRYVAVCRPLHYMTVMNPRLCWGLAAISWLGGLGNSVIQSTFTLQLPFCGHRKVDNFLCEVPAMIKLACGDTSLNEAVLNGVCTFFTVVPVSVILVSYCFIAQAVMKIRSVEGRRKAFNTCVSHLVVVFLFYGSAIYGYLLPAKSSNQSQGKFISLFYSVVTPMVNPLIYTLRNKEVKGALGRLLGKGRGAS

mOR203-1 [3] = assay: Vapor response of mOR-functionalized carbon nanotube transistor; settings: for NT device response: FIG. 12A
[4] = Control vapor response of bare nanotube devices and devices with Ni-NTA and empty digitonin micelles; settings: bare NT transistors and devices treated with Ni-NTA and empty digitonin micelles
[5] = test system: mouse olfactory receptor proteins (mORs); assay: Vapor response of mOR-functionalized NT devices, mOR not specified; assay type: binding; settings: all three mORs
mOR256-17 [6] = target: T1, mOR256-17; assay: Xenopus oocyte expression with robotic electrophysiology; settings: mOR 256-17
mOR174-9 = target: T2, mOR174-9 (Mus musculus, UniProt Q920P2); assay: Vapor response of mOR-functionalized carbon nanotube transistor
T2 sequence (Q920P2 1-313): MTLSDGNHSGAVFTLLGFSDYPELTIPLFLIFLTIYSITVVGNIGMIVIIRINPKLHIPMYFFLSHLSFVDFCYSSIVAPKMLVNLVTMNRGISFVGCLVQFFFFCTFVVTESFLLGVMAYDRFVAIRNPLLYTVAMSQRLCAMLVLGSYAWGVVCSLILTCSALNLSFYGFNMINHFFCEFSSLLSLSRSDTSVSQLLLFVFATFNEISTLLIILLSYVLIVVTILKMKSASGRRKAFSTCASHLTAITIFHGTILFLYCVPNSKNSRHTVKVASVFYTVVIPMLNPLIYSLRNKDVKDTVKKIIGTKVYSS

mOR256-17 [7] = target: T1, mOR256-17; assay: Vapor response of mOR-functionalized carbon nanotube transistor, high-speed data acquisition; assay type: binding; parameters: made in house; host or cells: Sf9 insect cells (Bac-to-Bac, pFastBac HT, Invitrogen); settings: cyclohexanone 2250 ppm, mOR 256-17 in nanodiscs
[8] = mOR203-1 in digitonin micelles, single sensor, FIG. 4

CCCCCC(C)=O [2-heptanone]
HEK data response (mOR203-1 [1]): strong response
response of mOR256-17 according to published reports (mOR256-17 [2]): not
NT device response with both packaging methods (mOR203-1 [3]; mOR 203-1, surfactant stabilized and nanodisc stabilized): expected response
NT device response (mOR203-1 [3]; mOR203-1 in digitonin micelles): strong response
change in conductance (mOR203-1 [3]; [8]): negative changes in conductance

CC(=O)c1ccccc1 [acetophenone]
HEK data response (mOR203-1 [1]): lack of response
NT device response (mOR203-1 [3]; mOR203-1 in digitonin micelles): lack of response

O=C1CCCCC1 [cyclohexanone]
response of control devices without mOR [4]: small response
response of the inventive devices [5]: strong response
response of mOR256-17 according to published reports (mOR256-17 [2]): responds
oocyte measurement response, in words (mOR256-17 [6]): show a response
NT device response shared by both packaging methods (mOR174-9; mOR 174-9, surfactant stabilized and nanodisc stabilized): response shared between the two packaging methods
response time constant, first of double exponential fit (FIG. 11D) (mOR256-17 [7]): 2.06 ± 0.01 s
response time constant, second of double exponential fit (FIG. 11D) (mOR256-17 [7]): 25.51 ± 0.04 s
sensing response time constant, first of double exponential fit (FIG. 3) (mOR256-17 [7]): 9.1 s and 9.08 ± 0.04 s
sensing response time constant, second of double exponential fit (FIG. 3) (mOR256-17 [7]): 41.2 s and 41.2 ± 0.4 s

C=CCc1ccc(O)c(OC)c1 [eugenol]
response of control devices without mOR [4]: no change in conductance
NT device response shared by both packaging methods (mOR174-9): expected response
sensing response (change in device current) (mOR174-9): large positive responses; also recorded: large positive sensing response
change in conductance (mOR203-1 [3]; [8]): positive changes in conductance

CCCCCCC=O [heptanal]
HEK data response (mOR203-1 [1]): lack of response
response of mOR256-17 according to published reports (mOR256-17 [2]): not
NT device response (mOR203-1 [3]; mOR203-1 in digitonin micelles): lack of response

COC(=O)c1ccccc1 [methyl benzoate]
change in conductance (mOR203-1 [3]): no change in conductance

CCCCCOC(C)=O [n-amyl acetate]
change in conductance (mOR203-1 [3]; [8]): negative changes in conductance
